Source: patent US20170304288A1, “Formulations of Methionine Aminopeptidase Inhibitors for Treating Infectious Diseases” (Texas Southern University, priority 2013, published 2017)
Read-outs that look alike come from different tables or passages of the source. Marks after values point to notes of the source that are not given here.

What was measured:
[1] = test system: E. faecalis OG1RF; assay: Liquid-based C. elegans infection model, survival; assay type: in vivo, Enterococcus faecalis
[2] = Stability in plasma and urine samples for LC-MS/MS analysis; assay type: in vitro ADME, rat
Experimental: The short-term (bench-top) stability of compound 5 in plasma and urine samples was evaluated by analyzing three sets each of freshly prepared plasma and urine samples containing compound 5 and placed them on the bench-top for 2, 4, and 6 h, respectively or at −80° C. for 14 days. All the samples were compared with freshly prepared samples of the same concentration.
The stability of compound 5 in processed samples (on-instrument or auto-sampler stability) was also evaluated by comparing freshly prepared plasma and urine QC samples to similar samples placed on the auto-sampler for 2, 4, and 6 h respectively. One set of the plasma and urine QC samples was extracted with acetonitrile containing IS, and the other set with pure acetonitrile without IS.

[3] = Pharmacokinetic study in male Sprague Dawley rats; assay type: in vivo; details: rat; for Cmax / clearance / bioavailability / half-life / Vd: male, Sprague Dawley, plasma; for bioavailability: read-out: Fabs (absolute bioavailability); for Vd: read-out: VD (volume of distribution)
Description: Pharmacokinetic evaluation elucidates the fate of compound 5 in living systems. The pharmacokinetic study of compound 5 was also a means to verify the applicability of the LC-MS/MS assay method and the formulations. An adult male Sprague Dawley rat model was the preferred biological system for this experiment based on the similarity to humans in metabolism and minimal interference of hormones with metabolism. Briefly, male Sprague Dawley rats (n=4 for IV group, n=3 for subcutaneous and oral groups each, body weight: 300-350 g) were cannulated through the jugular vein under anesthesia (using a cocktail of ketamine: acepromazine: xylazine at a ratio of 50: 3.3: 3.3 mg/kg). On the following day, the optimal IV co-solvent formulation was diluted five times with normal saline to 1 mg/mL. The formulation for subcutaneous and oral administration was diluted with equal amount of normal saline to 3.75 mg/mL. Each rat was administered a 2 mg/kg IV bolus dose, 10 mg/kg subcutaneous dose or 20 mg/kg oral dose of compound 5. Heparinized blood samples were withdrawn from each rat at 5, 10, 15, 30 mins, 1, 2, 4, 6, 8, 12, 24, 48, 72, 96, 144 h after injection. The blood samples were centrifuged at 14,000 rpm for 6 min and the supernatant plasma obtained and stored at −80° C. until LC-MS/MS analysis for the concentration of compound 5. Urine samples were also collected at 0, 4, 8, 12, and 24 h. The plasma and urine samples were analyzed (within 7 days) using the developed LC/MS/MS method to determine the concentration of compound 5. FIG. 19A-D show plots of the plasma concentration of compound 5 against time.
The pharmacokinetic parameters for each rat were determined with Phoenix WinNonlin 6.3 software (Pharsight Corporation, Mountain View, Calif., USA) a non-compartmental analysis and a two compartment, which best described the fit for the IV bolus administration of compound 5, based on the observed and predicted fits of the plasma concentration versus time plot, the reduction in the sums of squares, and the Akaike's information criterion (AIC) for comparing compartmental models (5).
The weighting scheme of concentration^−2 (Y^−2) was used to determine the model that best fits the individual profiles. […] The plasma concentration -time profiling following 20 mg/Kg oral and 10 mg/kg subcutaneous doses of compound 5 is shown in FIG. 22C.

[4] = iv, 2 mg/kg, Intravenous (Dose: 2 mg/kg), non-compartmental analysis
[5] = iv, 2 mg/kg, Intravenous (Dose: 2 mg/kg), two compartment model
[6] = po, 20 mg/kg, Oral (Dose: 20 mg/kg), non-compartmental analysis
[7] = sc, 10 mg/kg, Subcutaneous (Dose: 10 mg/kg), non-compartmental analysis
[8] = Intravenous (Dose: 2 mg/kg), two compartment model
[9] = Oral (Dose: 20 mg/kg), non-compartmental analysis
[10] = Oral (Dose: 20 mg/kg), two compartment model
[11] = Subcutaneous (Dose: 10 mg/kg), non-compartmental analysis
[12] = Subcutaneous (Dose: 10 mg/kg), two compartment model

In the case of `Oc1c(Br)cc(Cl)c2cccnc12` [Compound 5, 7-bromo-5-chloroquinolin-8-ol], the “survival of the nematodes at Maximum protective concentration” value ([1]; 4×10^−4 μg/mL) is reported as roughly 80%, the “survival of infected animals compared to tetracycline” value ([1]; 4×10^−5 μg/mL to 4×10^−4 μg/mL) is reported as “survived just as well, or better, than animals treated with tetracycline” and the “MPC (Minimum Protective Concentration) OG1RF” value ([1]; C. elegans) is reported as 4e-11 µg/mL. For the same compound, the “MmaxPC (Maximum Protective Concentration) OG1RF” value ([1]; C. elegans) was 0.0004 µg/mL, the “Processed sample or Auto-sampler stability No IS” value ([2]; Plasma, 2 hr) was 97.8 ± 1.11 and the “Processed sample or Auto-sampler stability With IS” value ([2]; Plasma, 2 hr) was 95.9 ± 1.87. For the same compound, the “Short-term Stability” value ([2]; Plasma, 2 hr bench-top) was 91.6 ± 4.06, the “Processed sample or Auto-sampler stability No IS” value ([2]; Plasma, 4 hr) was 97.1 ± 5.42 and the “Processed sample or Auto-sampler stability With IS” value ([2]; Plasma, 4 hr) was 94.7 ± 4.20. For the same compound, the “Short-term Stability” value ([2]; Plasma, 4 hr bench-top) was 95.1 ± 3.24, the “Processed sample or Auto-sampler stability No IS” value ([2]; Plasma, 6 hr) was 95.5 ± 6.69 and the “Processed sample or Auto-sampler stability With IS” value ([2]; Plasma, 6 hr) was 97.3 ± 5.55. For the same compound, the “Short-term Stability” value ([2]; Plasma, 6 hr bench-top) was 93.7 ± 1.17, the “Short-term Stability” value ([2]; Plasma, 14 days at −80° C.) was 91.3 ± 5.45 and the “Processed sample or Auto-sampler stability No IS” value ([2]; Urine, 2 hr) was 92.3 ± 1.32. The “Processed sample or Auto-sampler stability With IS” value ([2]; Urine, 2 hr) was 102.1 ± 1.35, the “Short-term Stability” value ([2]; Urine, 2 hr bench-top) was 94.4 ± 1.83 and the “Processed sample or Auto-sampler stability No IS” value ([2]; Urine, 4 hr) was 92.8 ± 2.31. The “Processed sample or Auto-sampler stability With IS” value ([2]; Urine, 4 hr) was 99.5 ± 1.89, the “Short-term Stability” value ([2]; Urine, 4 hr bench-top) was 93.2 ± 4.10 and the “Processed sample or Auto-sampler stability No IS” value ([2]; Urine, 6 hr) was 94.2 ± 1.59. For the same compound, the “Processed sample or Auto-sampler stability With IS” value ([2]; Urine, 6 hr) was 103.2 ± 2.33, the “Short-term Stability” value ([2]; Urine, 6 hr bench-top) was 95.6 ± 1.44 and the “Short-term Stability” value ([2]; Urine, 14 days at −80° C.) was 101.6 ± 4.29. The Cmax [3, 4] was 2560 ± 480 ng/mL, the clearance ([3]; iv, 2 mg/kg, Intravenous (Dose: 2 mg/kg), non-compartmental analysis, read-out: Cl- (total body clearance) (converted)) was 1.67 mL/min/kg and the bioavailability [3, 4] was 100%. For the same compound, the half-life ([3]; iv, 2 mg/kg, Intravenous (Dose: 2 mg/kg), non-compartmental analysis, read-out: T1/2 (elimination half-life) (converted)) was 176 ± 30.5 h, the Vd [3, 4] was 24.6 ± 1.19 L/kg and the Cmax [3, 5] was 2600 ± 560 ng/mL. It also gave a clearance ([3]; iv, 2 mg/kg, Intravenous (Dose: 2 mg/kg), two compartment model, read-out: Cl (total body clearance) (converted)) of 2.17 mL/min/kg, a half-life ([3]; iv, 2 mg/kg, Intravenous (Dose: 2 mg/kg), two compartment model, read-out: T1/2α (distribution half-life) (converted)) of 0.19 ± 0.02 h and a half-life ([3]; iv, 2 mg/kg, Intravenous (Dose: 2 mg/kg), two compartment model, read-out: T1/2β (elimination half-life) (converted)) of 109 ± 19.4 h. The Vd [3, 5] was 21.6 ± 1.32 L/kg, the Cmax [3, 6] was 1730 ± 380 ng/mL and the bioavailability [3, 6] was 4.6%. The half-life ([3]; po, 20 mg/kg, Oral (Dose: 20 mg/kg), non-compartmental analysis, read-out: T1/2 (elimination half-life) (converted)) was 8.21 h, the Cmax ([3]; po, 20 mg/kg, Oral (Dose: 20 mg/kg), two compartment model) was 1670 ± 600 ng/mL and the half-life ([3]; po, 20 mg/kg, Oral (Dose: 20 mg/kg), two compartment model, read-out: T1/2abs (absorption half-life) (converted)) was 0.14 ± 0.02 h. It also gave a half-life ([3]; po, 20 mg/kg, Oral (Dose: 20 mg/kg), two compartment model, read-out: T1/2α (distribution half-life) (converted)) of 0.33 ± 0.01 h, a half-life ([3]; po, 20 mg/kg, Oral (Dose: 20 mg/kg), two compartment model, read-out: T1/2β (elimination half-life) (converted)) of 7.05 ± 1.88 h and a Cmax [3, 7] of 910 ± 70 ng/mL. The bioavailability [3, 7] was 15.7%, the half-life ([3]; sc, 10 mg/kg, Subcutaneous (Dose: 10 mg/kg), non-compartmental analysis, read-out: T1/2 (elimination half-life) (converted)) was 36.8 ± 2.87 h and the Cmax ([3]; sc, 10 mg/kg, Subcutaneous (Dose: 10 mg/kg), two compartment model) was 970 ± 50 ng/mL. It also gave a half-life ([3]; sc, 10 mg/kg, Subcutaneous (Dose: 10 mg/kg), two compartment model, read-out: T1/2abs (absorption half-life) (converted)) of 0.376 ± 0.01 h, a half-life ([3]; sc, 10 mg/kg, Subcutaneous (Dose: 10 mg/kg), two compartment model, read-out: T1/2α (distribution half-life) (converted)) of 1.66 ± 0.65 h and a half-life ([3]; sc, 10 mg/kg, Subcutaneous (Dose: 10 mg/kg), two compartment model, read-out: T1/2β (elimination half-life) (converted)) of 51.5 ± 16.1 h. The “AUC0-∞” value ([3]; Intravenous (Dose: 2 mg/kg), non-compartmental analysis) was 10.3 ± 1 mg/L/h, the “A (coefficient of α-phase)” value [3, 8] was 2.51 ± 0.56 mg/L and the “AUC0-∞” value [3, 8] was 15.7 ± 1.96 mg/L/h. The “B (coefficient of β-phase)” value [3, 8] was 0.09 ± 0.01 mg/L, the “AUC0-∞” value [3, 9] was 4.73 ± 0.97^a mg/L/hr and the “Cl- (total body clearance)” value [3, 9] was 4.72 ± 1.20 L/kg/h. The “VD (volume of distribution)” value [3, 9] was 63.9 ± 34.3 L/kg, the “Fabs (absolute bioavailability)” value ([3]; Oral (Dose: 20 mg/kg), non-compartmental analysis, 20 mg/kg) was 4.59 ± 1.33% and the “A (coefficient of α-phase)” value [3, 10] was 4.29 ± 0.42 mg/L. The “AUC0-∞” value [3, 10] was 4.27 ± 1.69 mg/L/h, the “B (coefficient of β-phase)” value [3, 10] was 0.37 ± 0.24 mg/L and the “Cl (total body clearance)” value [3, 10] was 92.3 ± 36.3 mL/min/kg. The “VD (volume of distribution)” value [3, 10] was 34.8 ± 21.8 L/kg, the “AUC0-∞” value [3, 11] was 8.14 ± 0.23^c mg/L/hr and the “Cl- (total body clearance)” value [3, 11] was 1.23 ± 0.04^c L/kg/hr. The “VD (volume of distribution)” value [3, 11] was 65.0 ± 3.77^c L/kg, the “A (coefficient of α-phase)” value [3, 12] was 2.05 ± 0.57 mg/L and the “AUC0-∞” value [3, 12] was 8.68 ± 0.92 mg/L/h. The “B (coefficient of β-phase)” value [3, 12] was 0.08 ± 0.02 mg/L, the “Cl (total body clearance)” value [3, 12] was 19.5 ± 2 mL/min/kg and the “VD (volume of distribution)” value [3, 12] was 45.8 ± 5.95 L/kg.
